Results taken from patent US9326978B2, “A3 adenosine receptor allosteric modulators” (The United States of America, Represented by the Secretary, …, priority 2006, dated 2016).

How the values were obtained:
[1] = molecular target: T1, human A3ARs (Homo sapiens (Human), UniProt P0DMS8); assay: Cyclic AMP accumulation assay, efficacy at hA3AR; assay type: cell-based; settings: compared to maximal effect by 2-Cl-IB-MECA alone (control = 100%)
Protocol: Intracellular cyclic AMP levels were measured with a competitive protein binding method (Nordstedt and Fredholm, 1990). CHO cells that expressed recombinant human A3ARs were harvested by trypsinization. After centrifugation and resuspension in medium, cells were plated in 24-well plates in 0.5 ml medium. After 24 hr, the medium was removed and cells were washed three times with 1 ml DMEM, containing 50 mM HEPES, pH 7.4. Cells were then treated with agonists and/or test compounds in the presence of rolipram (10 μM) and adenosine deaminase (3 units/ml). After 45 min forskolin (10 μM) was added to the medium, and incubation was continued an additional 15 min. The reaction was terminated by removing the supernatant, and cells were lysed upon the addition of 200 μL of 0.1 M ice-cold HCl. The cell lysate was resuspended and stored at −20° C. For determination of cyclic AMP production, protein kinase A (PKA) was incubated with [^3H]cyclic AMP (2 nM) in K2HPO4/EDTA buffer (K2HPO4, 150 mM; EDTA, 10 mM), 20 μL of the cell lysate, and 30 μL 0.1 M HCl or 50 μL of cyclic AMP solution (0-16 pmol/200 μL for standard curve). Bound radioactivity was separated by rapid filtration through Whatman GF/C filters and washed once with cold buffer. Bound radioactivity was measured by liquid scintillation spectrometry.

[2] = molecular target: T1, human A3ARs; assay: Dissociation kinetics of [125I]I-AB-MECA from human A3ARs; assay type: binding; settings: 0.5 h, % decrease of dissociation at 30 min, residual binding of [125I]AB-MECA after 30 min = 100%, Table 2, read-out: hA3AR Ag. Dissociation at 10 μM
Protocol: The dissociation of [^125I]I-AB-MECA was measured as follows. Membranes (20 μg) were preincubated at 25° C. with 0.5 nM [^125I]I-AB-MECA, in a total volume of 100 μl of Tris-HCl buffer (50 mM, pH 8.0) containing 10 mM MgCl2, and 1 mM EDTA for 60 min. The dissociation was then initiated by the addition of 3 μM Cl-IB-MECA with or without allosteric modulators. The time course of dissociation of total binding was measured by rapid filtration at appropriate time intervals. Nonspecific binding was measured after 60-min incubation in the presence of 3 μM Cl-IB-MECA. Further assay was as described above.

[3] = molecular target: hA2BAR (Homo sapiens (Human), UniProt P29275); assay: Effect on NECA-induced cyclic AMP accumulation at A2B receptor; further: NECA (150 nM)-induced cyclic AMP accumulation; assay type: cell-based; settings: read-out: hA2BAR % inhib. at 10 μM
[4] = molecular target: human A1AR (Homo sapiens (Human), UniProt P30542); assay: Binding assay to the human A1AR ([3H]R-PIA); settings: [3H]R-PIA (2.0 nM), CHO cells, Table 2; for inhibition at 10 µM: 1 h, read-out: hA1AR % displ. at 10 μM; for Ki: read-out: Ki(hA1AR)
Protocol: (§1) CHO (Chinese hamster ovary) cells expressing the recombinant human ARs (HEK-293 cells were used for the human A2AAR) were cultured in DMEM and F12 (1:1) supplemented with 10% fetal bovine serum, 100 units/ml penicillin, […] streptomycin and 2 μmol/ml glutamine. Cells were harvested by trypsinization. After homogenization and suspension, cells were centrifuged at 500 g for 10 min, and the pellet was re-suspended in 50 mM Tris.HCl buffer (pH 7.4) containing 10 mM MgCl2. The suspension was homogenized with an electric homogenizer for 10 sec, and was then re-centrifuged at 20,000 g for 20 min at 4° C. The resultant pellets were resuspended in buffer in the presence of 3 Units/mL adenosine deaminase, and the suspension was stored at −80° C. until the binding experiments. The protein concentration was measured using the Bradford assay.
(§2) For binding to the human A1AR, [^3H]R-PIA (2 nM) was incubated with membranes (40 μg/tube) from CHO cells stably expressing the human A1AR at 25° C. for 60 min in 50 mM Tris.HCl buffer (pH 7.4; MgCl2, 10 mM) in a total assay volume of 200 μL. Nonspecific binding was determined using 10 μM of N^6-cyclopentyladenosine. For human A2A AR binding, membranes (20 μg/tube) from HEK-293 cells stably expressing the human A2A AR were incubated with 15 nM [^3H]CGS21680 at 25° C. for 60 min in 200 μL of 50 mM Tris.HCl, pH 7.4, containing 10 mM MgCl2. N-5′-ethyluronamidoadenosine (10 μM) was used to define nonspecific binding. Reaction was terminated by filtration with GF/B filters.

[5] = molecular target: human A3AR (Homo sapiens (Human), UniProt P0DMS8); assay: Competitive binding assay to the human A3AR ([125I]I-AB-MECA); settings: for inhibition at 10 µM: 1 h, read-out: hA3AR % displ. at 10 μM; for inhibition at 10 µM / Ki: [125I]I-AB-MECA (0.5 nM), CHO cells, Table 2; for affinity to orthosteric versus allosteric binding sites (selective affinity): orthosteric sites of A1, A2A, A2B, A3 receptors vs allosteric site of A3 adenosine receptor; for Ki: read-out: Ki(hA3AR)
Protocol: as §1
Each tube in the competitive binding assay contained 100 μl membrane suspension (20 μg protein), 50 μl [^125I]-AB-MECA (0.5 nM), and 50 μl of increasing concentrations of the test ligands in Tris.HCl buffer (50 mM, pH 8.0) containing 10 mM MgCl2, 1 mM EDTA. Nonspecific binding was determined using 10 μM of 5′-N-ethylcarboxamidoadenosine in the buffer. The mixtures were incubated at 25° C. for 60 min. Binding reactions were terminated by filtration through Whatman GF/B filters under reduced pressure using a MT-24 cell harvester (Brandell, Gaithersburgh, Md., USA). Filters were washed three times with 9 mL ice-cold buffer. Radioactivity was determined in a Beckman 5500B γ-counter.

[6] = molecular target: human A2A AR (Homo sapiens (Human), UniProt P29274); assay: Binding assay to the human A2A AR ([3H]CGS21680); settings: [3H]CGS 21680 (15 nM), HEK293 cells, Table 2; for Ki: read-out: Ki(hA2AAR)
Protocol: as §1, §2

Sequence of human A2A AR (P29274 whole entry): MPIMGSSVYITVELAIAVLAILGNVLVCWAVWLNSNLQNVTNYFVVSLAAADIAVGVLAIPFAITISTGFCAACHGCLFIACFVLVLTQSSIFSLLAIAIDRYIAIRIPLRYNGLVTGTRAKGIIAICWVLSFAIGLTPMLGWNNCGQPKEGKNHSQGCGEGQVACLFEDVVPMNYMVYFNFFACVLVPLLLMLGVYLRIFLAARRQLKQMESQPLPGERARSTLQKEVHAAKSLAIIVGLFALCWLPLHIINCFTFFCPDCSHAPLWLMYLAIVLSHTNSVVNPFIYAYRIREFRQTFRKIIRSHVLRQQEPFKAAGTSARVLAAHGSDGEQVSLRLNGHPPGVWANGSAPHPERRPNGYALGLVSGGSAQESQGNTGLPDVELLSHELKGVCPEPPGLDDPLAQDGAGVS
T1 sequence (P0DMS8 whole entry): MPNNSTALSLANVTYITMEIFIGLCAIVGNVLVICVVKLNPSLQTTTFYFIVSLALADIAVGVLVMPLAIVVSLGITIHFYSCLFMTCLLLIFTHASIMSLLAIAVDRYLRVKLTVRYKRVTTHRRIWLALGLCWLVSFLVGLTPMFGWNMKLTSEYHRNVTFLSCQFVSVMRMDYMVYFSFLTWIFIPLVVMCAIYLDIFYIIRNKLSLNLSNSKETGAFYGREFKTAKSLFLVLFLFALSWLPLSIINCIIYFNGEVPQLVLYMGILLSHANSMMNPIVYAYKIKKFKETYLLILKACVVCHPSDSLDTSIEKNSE
Sequence of human A3AR (P0DMS8 whole entry): as above
Sequence of hA2BAR (P29275 whole entry): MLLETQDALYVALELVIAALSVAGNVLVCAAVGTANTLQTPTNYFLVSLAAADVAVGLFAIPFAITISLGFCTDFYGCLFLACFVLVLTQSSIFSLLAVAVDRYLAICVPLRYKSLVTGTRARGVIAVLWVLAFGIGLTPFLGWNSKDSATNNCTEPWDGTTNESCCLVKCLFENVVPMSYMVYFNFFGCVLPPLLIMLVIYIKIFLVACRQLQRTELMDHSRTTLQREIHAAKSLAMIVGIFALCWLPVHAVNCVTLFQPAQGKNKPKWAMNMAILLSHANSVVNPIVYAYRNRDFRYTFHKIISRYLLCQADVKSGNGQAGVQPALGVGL
Sequence of human A1AR (P30542 whole entry): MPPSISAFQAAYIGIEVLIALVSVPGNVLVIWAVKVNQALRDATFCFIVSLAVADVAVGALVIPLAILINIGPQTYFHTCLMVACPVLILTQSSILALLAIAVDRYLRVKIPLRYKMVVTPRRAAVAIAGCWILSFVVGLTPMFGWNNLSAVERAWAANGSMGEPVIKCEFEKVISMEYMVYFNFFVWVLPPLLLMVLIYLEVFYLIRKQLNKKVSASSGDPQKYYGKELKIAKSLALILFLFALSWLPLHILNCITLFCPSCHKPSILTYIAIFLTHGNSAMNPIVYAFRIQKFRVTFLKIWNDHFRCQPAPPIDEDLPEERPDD

SMILES | % Increase of efficacy at hA3AR at 10 μM [1] [%] | activity at 10 µM [2] [%] | inhibition at 10 µM [3] [%] | inhibition at 10 µM [4] [%] | inhibition at 10 µM [5] [%] | hA2AAR % displ. at 10 μM [6] | melting point [°C] | affinity to orthosteric versus allosteric binding sites (selective affinity) [5] | Ki [4] [µM] | Ki [5] [µM] | Ki [6] [µM]
Clc1ccc(Nc2nc3ccccc3c3[nH]cnc23)cc1Cl [Compound 46, N-(3,4-Dichloro-phenyl)-2-1H-imidazo[4,5-c]quinolin-4-amine] | 92 ± 4 | 91 ± 7 | 10.2 | 1.8 | 39 | −0.8% | 167 to 172 |  |  |  | 
Clc1ccc(Nc2nc3ccccc3c3[nH]c(C4CCCCCC4)nc23)cc1Cl [Compound 42, N-(3,4-Dichloro-phenyl)-2-cycloheptyl-1H-imidazo[4,5-c]quinolin-4-amine] | 115 ± 7 | 130 ± 2 | -7.3 | -4 | 68 | −2% | 236 to 238 | selective affinity |  |  | 
COc1ccc(Nc2nc3ccccc3c3[nH]c(C4CCCC4)nc23)cc1 [Compound 32, N-(4-Methoxy-phenyl)-2-cyclopentyl-1H-imidazo[4,5-c]quinolin-4-amine] | 132 ± 4 | 166 ± 11 | 7.3 |  | 92 | (16%) | 106 to 107 |  | 4.17 ± 0.73 | 0.41 ± 0.064 | > 10
Clc1ccc(Nc2nc3ccccc3c3[nH]c(C4CCCC4)nc23)cc1 [Compound 34, N-(4-Chloro-phenyl)-2-cyclopentyl-1H-imidazo[4,5-c]quinolin-4-amine] | 136 ± 3 | 159 ± 5 | -10.2 | 22 | 82 | (17%) | 189 to 190 |  | > 10 | 1.61 ± 0.55 | > 10
Cc1ccc(Nc2nc3ccccc3c3[nH]c(C4CCCC4)nc23)cc1 [Compound 31, N-(4-Methyl-phenyl)-2-cyclopentyl-1H-imidazo[4,5-c]quinolin-4-amine] | 128 ± 4 | 153 ± 4 | -4.1 |  | 87 |  | 125 to 126 |  |  | 1.19 ± 0.107 | 5.22 ± 0.32
c1ccc(CNc2nc3ccccc3c3[nH]c(C4CCCC4)nc23)cc1 [Compound 40, N-(Benzyl)-2-cyclopentyl-1H-imidazo[4,5-c]quinolin-4-amine] | 147 ± 8 | 145 ± 10 | -3.4 | 28 | 86 | 77% |  |  |  |  | 
COc1ccc(CNc2nc3ccccc3c3[nH]c(C4CCCC4)nc23)cc1 [Compound 38, N-(4-Methoxy-benzyl)-2-cyclopentyl-1H-imidazo[4,5-c]quinolin-4-amine] | 109 ± 3 | 101 ± 13 | 0.3 | 59 | 80 | 60% | 245 to 247 |  |  |  | 
c1ccc2c(c1)nc(Nc1ccc3c(c1)CCC3)c1nc(C3CCCC3)[nH]c12 [Compound 36, N-([3,4-c]Indan)-2-cyclopentyl-1H-imidazo[4,5-c]quinolin-4-amine] | 111 ± 5 | 108 ± 4 | -10.7 | 21 | 69 | 8% | 142 to 145 |  |  |  | 
c1ccc(CCNc2nc3ccccc3c3[nH]c(C4CCCC4)nc23)cc1 [Compound 41, N-(Phenylethyl)-2-cyclopentyl-1H-imidazo[4,5-c]quinolin-4-amine] | 137 ± 4 | 154 ± 7 | -11.6 | 52 | 84 | 91% | 95 to 97 |  |  |  | 
c1ccc(Nc2nc3ccccc3c3[nH]c(C4CCCC4)nc23)cc1 [Compound 30, N-Phenyl-2-cyclopentyl-1H-imidazo[4,5-c]quinolin-4-amine, reference compound] | 138 ± 8 | 174 ± 5 | -6.8 |  | 90 |  |  | non-specific affinity | 3.42 ± 0.23 | 0.786 ± 0.067 | 3.15 ± 0.21
c1ccc2c(c1)nc(Nc1ccc3cn[nH]c3c1)c1nc(C3CCCC3)[nH]c12 [Compound 37, N-(1H-indazol-6-yl)-2-cyclopentyl-1H-imidazo[4,5-c]quinolin-4-amine] | 96 ± 2 | 109 ± 3 | 5 | 56 | 67 | 68% | 235 to 236 |  |  |  | 
CCCCCc1nc2c(Nc3ccc(Cl)c(Cl)c3)nc3ccccc3c2[nH]1 [Compound 47, N-(3,4-Dichloro-phenyl)-2-pentyl-1H-imidazo[4,5-c]quinolin-4-amine] | 102 ± 5 | 116 ± 5 | -9.3 | 43.9 | 84 | −1% | 195 to 200 |  |  |  | 
Clc1ccc(Nc2nc3ccccc3c3[nH]c(C4CCC4)nc23)cc1Cl [Compound 44, N-(3,4-Dichloro-phenyl)-2-cyclobutyl-1H-imidazo[4,5-c]quinolin-4-amine] | 126 ± 3 |  | -5.5 | -5 | 52 | 0.4% | 131 to 134 |  |  |  | 
